Legend:
arthritic rats = conditions: cited from earlier work
[1] = system: TNF-α production by macrophages; conditions: LPS- or bacteria-induced; cited from earlier work
[2] = healthy mice; cited from earlier work
Japanese encephalitis = conditions: flavivirus infection; cited from earlier work
tumor growth = conditions: cited from earlier work
[3] = system: VEGF production in human cancer cell lines; assay: VEGF production in human cancer cell lines (ELISA); format: cell-based
Protocol: (A) Effect of SNS on VEGF production was analyzed in two cancer cell lines (both supernatants and cell lysates). (B) The supernatant from control and drug treated H460 cells was analyzed for the level of VEGF (pg/ml). C. […] Statistical analyses were performed using one-way ANOVA.
As discussed above, SNS and pancratastatin were originally synthesized as an anti-cancer agent. The inventors also examined the effect of SNS and pancratastatin on the production of VEGF in human cancer cell lines (FIG. 2). […] This analysis had been performed at least 3-5 times depending on the cell lines and drug used, with statistical analysis performed using one-way ANOVA.

[4] = system: Encephalitozoan intestinalis; conditions: cited from earlier work

Compound	footpad volumes, severe chronic inflammation (arthritic rats; day 21 post-CFA challenge, treated vs untreated arthritic rats)	inflammation, acute phase (arthritic rats; given from the time of CFA challenge, day 14 post-CFA challenge)	TNF-α production by macrophages [1]	growth rate [2]	survival rate (Japanese encephalitis)	potency in inhibiting tumor growth relative to SNS (tumor growth)	VEGF production, narcistatin compared with pancratistatin [3]	effect on VEGF production/secretion ([3]; human cancer cell lines, ELISA)	activity against the parasite [4]
O=C1N[C@@H]2C(=C[C@H](O)[C@@H](O)[C@H]2O)c2cc3c(c(O)c21)OCO3 [narciclasine]	no differences in their footpad volumes	able to inhibit inflammation during the acute inflammatory phase	inhibits lipopolysaccharide (LPS)- or bacteria-induced production of TNF-α by macrophages	inhibits the growth rate of healthy mice					
O=C1N[C@H]2[C@H](O)[C@H](O)[C@@H](O)[C@H](O)[C@@H]2c2cc3c(c(O)c21)OCO3 [pancratistatin]					up to 100%	more potent than SNS in inhibiting tumor growth	comparable inhibition on VEGF production	inhibitory effect	activity against the parasite Encephalitozoan intestinalis

From patent US20050261246A1, “Methods for treating inflammatory and autoimmune diseases” (priority 2004, published 2005)
